This note sets out measurements from patent publication US8809342B2, “Glucagon receptor modulators” (Pfizer Inc., priority 2010, dated 2014).

SMILES strings stand for the structures.

For the test, the target named is T1, human glucagon receptor (Homo sapiens, UniProt P47871).
T1 construct: expressed in transfected cells; host or cells: CHO-K1 cells, stably transfected
Nature of the test: Glucagon cAMP assay (Cisbio cAMP detection). Also: 100 pM glucagon challenge. The format is cell-based. For orientation: Cyclic AMP is a second messenger, typically raised through Gs and lowered through Gi signalling.

T1 sequence (P47871 26-477): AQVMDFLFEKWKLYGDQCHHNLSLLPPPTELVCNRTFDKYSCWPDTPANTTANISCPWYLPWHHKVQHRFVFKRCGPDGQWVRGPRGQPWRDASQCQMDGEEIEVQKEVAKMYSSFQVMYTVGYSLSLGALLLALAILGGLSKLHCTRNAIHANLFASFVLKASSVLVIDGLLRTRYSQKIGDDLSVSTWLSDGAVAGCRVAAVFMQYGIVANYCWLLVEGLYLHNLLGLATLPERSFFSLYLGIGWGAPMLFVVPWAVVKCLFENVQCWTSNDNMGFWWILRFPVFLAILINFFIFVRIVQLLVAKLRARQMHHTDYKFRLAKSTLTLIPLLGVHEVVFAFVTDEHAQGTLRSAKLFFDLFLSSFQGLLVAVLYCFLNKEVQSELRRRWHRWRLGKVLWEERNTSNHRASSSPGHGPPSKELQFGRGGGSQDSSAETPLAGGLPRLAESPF

With `CC(C)C[C@@H](Nc1ccc(C(=O)NCCC(=O)O)cn1)c1ccc(-c2ccc(C(F)(F)F)cc2)nc1` (single isomer, unassigned; isomer 2) [Example 4.21, 3-(6-(3-methyl-1-(6-(4-(trifluoromethyl)phenyl)pyridin-3-yl)butylamino)nicotinamido) propanoic acid, Isomer 2], the Kb was determined as 0.98 µM.

In turn, `CC(C)C[C@@H](Nc1ccc(C(=O)NCCC(=O)O)cn1)c1ccc(-c2ccc(C(F)(F)F)cc2)cc1` [Example 1.1, (R)-3-(6-(3-methyl-1-(4′-(trifluoromethyl)biphenyl-4-yl)butylamino)nicotinamido)propanoic acid] came in with a Kb of 1.7 µM.

Turning to `CC(C)C[C@H](Nc1ccc(C(=O)NCCC(=O)O)cn1)c1ccc(-c2ccc(C(F)(F)F)cc2)cc1` [Example 1.3, (−)-(S)-3-(6-(3-methyl-1-(4′-(trifluoromethyl)biphenyl-4-yl)butylamino)nicotinamido)propanoic acid], the Kb is 0.073 µM.

`CC(C)C[C@H](Nc1ccc(C(=O)NCCC(=O)O)cn1)c1ccc(-c2ccc(C(F)(F)F)cn2)cc1` [Example 4.1, (S)—N-({6-[(3-methyl-1-{4-[5-(trifluoromethyl)pyridin-2-yl]phenyl}butyl)amino]pyridin-3-yl}carbonyl)-beta-alanine] showed a Kb of 0.067 µM.

On to `CCC[C@H](Nc1cnc(-c2ccc(C(F)(F)F)cc2)cn1)c1ccc(C(=O)NCCC(=O)O)cc1` [Example 4.4, (S)-3-(4-(1-((5-(4-(trifluoromethyl)phenyl)pyrazin-2-yl)amino)butyl)benzamido)propanoic acid], for which the Kb is 0.066 µM.

For the compound `CCC[C@@H](Nc1cnc(-c2ccc(C(F)(F)F)cc2)cn1)c1ccc(C(=O)NCCC(=O)O)cc1` [Example 4.5, (R)-3-(4-(1-((5-(4-(trifluoromethyl)phenyl)pyrazin-2-yl)amino)butyl)benzamido)propanoic acid], the Kb was determined as 0.82 µM.

Consider `O=C(O)CCNC(=O)c1ccc(NC(CC2CC2)c2ccc(-c3ccc(C(F)(F)F)cc3)cc2)nc1` (stereo not drawn) [Example 4.14, 3-(6-(2-cyclopropyl-1-(4′-(trifluoromethyl)biphenyl-4-yl)ethylamino)nicotinamido)propanoic acid], for which the Kb was determined as 0.11 µM.

For `Cc1cc(C(CC(C)C)Nc2ccc(C(=O)NCCC(=O)O)cn2)cnc1-c1ccc(C(F)(F)F)cc1` (stereo not drawn) [Example 4.15, 3-(6-(3-methyl-1-(5-methyl-6-(4-(trifluoromethyl)phenyl)pyridin-3-yl)butylamino)nicotinamido)propanoic acid], the Kb came out at 0.37 µM.

Regarding `CCCC(Nc1ncc(C(=O)NCCC(=O)O)cn1)c1ccc(-c2ccc(C(F)(F)F)cc2)cc1` (stereo not drawn) [Example 4.17, 3-(2-(1-(4′-(trifluoromethyl)biphenyl-4-yl)butylamino)pyrimidine-5-carboxamido)propanoic acid], the Kb came out at 0.34 µM.

Regarding `CCCC(Nc1ccc(-c2ccc(C(F)(F)F)cc2)nc1)c1ccc(C(=O)NCCC(=O)O)cc1` (stereo not drawn) [Example 4.18, 3-(4-(1-(6-(4-(trifluoromethyl)phenyl)pyridin-3-ylamino)butyl)benzamido)propanoic acid], the Kb was 0.06 µM.

Turning to `CCCC(Nc1ccc(C(=O)NCCC(=O)O)cn1)c1ccc(-c2ccc(C(F)(F)F)cc2)c(OC)c1` (stereo not drawn) [Example 4.23, 3-(6-(1-(2-methoxy-4′-(trifluoromethyl)biphenyl-4-yl)butylamino)nicotinamido)propanoic acid], the Kb came to 0.075 µM.

For the compound `CCCC(Nc1ccc(C(=O)NCCC(=O)O)cn1)c1ccc(-c2ccc(C(F)(F)F)cc2)cc1OC` (stereo not drawn) [Example 4.24, 3-(6-(1-(3-methoxy-4′-(trifluoromethyl)biphenyl-4-yl)butylamino)nicotinamido)propanoic acid], the Kb came to 0.088 µM.

As to `CCCC(Nc1ccc(C(=O)NCCC(=O)O)cn1)c1cnc(-c2ccc(OC(F)(F)F)cc2)nc1` (stereo not drawn) [Example 4.25, 3-(6-(1-(2-(4-(trifluoromethoxy)phenyl)pyrimidin-5-yl)butylamino)nicotinamido)propanoic acid], the Kb amounted to 0.094 µM.

Compound `O=C(O)CCNC(=O)c1ccc(NC(c2cnc(-c3ccc(C(F)(F)F)cc3)nc2)C2CCCC2)nc1` (stereo not drawn) [Example 4.28, 3-(6-(cyclopentyl(2-(4-(trifluoromethyl)phenyl)pyrimidin-5-yl)methylamino)nicotinamido)propanoic acid] had a Kb of 0.056 µM.

With `CC(C)CC(Nc1cnc(-c2ccc(C(F)(F)F)cc2)nc1)c1ccc(C(=O)NCCC(=O)O)cc1` (stereo not drawn) [Example 4.31, 3-(4-(3-methyl-1-(2-(4-(trifluoromethyl)phenyl)pyrimidin-5-ylamino)butyl)benzamido)propanoic acid], the Kb was 0.055 µM.

For the compound `CC(C)CC(Nc1cnc(-c2ccc(C(F)(F)F)cc2)nc1)c1ccc(C(=O)NCCC(=O)O)nc1` (stereo not drawn) [Example 4.32], the Kb was 2.7 µM.

Compound `COC1CC(C(Nc2ccc(C(=O)NCCC(=O)O)cn2)c2ccc(-c3ccc(C(F)(F)F)cc3)cc2)C1` (stereo not drawn) [Example 4.33, 3-(6-((3-methoxycyclobutyl)(4′-(trifluoromethyl)biphenyl-4-yl)methylamino)nicotinamido)propanoic acid] gave a Kb of 0.28 µM.

Take `O=C(O)CCNC(=O)c1ccc(NC(c2ccc(-c3ccc(C(F)(F)F)cc3)cc2)C2CCCOC2)nc1` (stereo not drawn) [Example 4.34, 3-(6-((tetrahydro-2H-pyran-3-yl)(4′-(trifluoromethyl)biphenyl-4-yl)methylamino)nicotinamido)propanoic acid]: the Kb turned out to be 0.12 µM.
